Test results as given in patent publication US5114918A, “Endothelin antagonistic cyclic pentapeptides” (Banyu Pharmaceutical Co., Ltd., priority 1989, dated 1992).
“And” between values parts separate entries of the source, which are not always exact repeats. Identical values can stand only once. Numbered stars: 1 amine (or outer) side, 2 acyl side, 3 side chain; on linkers, the order of the positions; unused ones are H or OH. Square brackets hold non-standard residues; d marks the D form. Peptide text beside a SMILES is read from it. X2 = CNC(=O)Cn1cc(C[C@@H](N[*:1])C(=O)[*:2])c2ccccc21; X6 = COC(=O)Cn1cc(C[C@@H](N[*:1])C(=O)[*:2])c2ccccc21; X3 = NC(=O)Cn1cc(C[C@@H](N[*:1])C(=O)[*:2])c2ccccc21; X4 = O=C1Nc2ccccc2C1C[C@@H](N[*:1])C(=O)[*:2]; d(aIle) = CC[C@H](C)[C@@H](N)C(=O)O; NMeA = CN[C@@H](C)C(=O)O

Columns and labels:
[1] = target: T1, endothelin receptor (membrane of smooth muscle tissue of porcine aorta) (Sus scrofa, UniProt Q29010); assay: Endothelin binding inhibition test (125I-endothelin-1, porcine aorta smooth muscle membrane); conditions: 1.1 μM of the test compound, porcine aorta smooth muscle membrane, 25° C, 4 hours; for inhibition at 1.1 µM: read-out: 125I-endothelin-1 binding inhibition, Inhibition (%)
T1 construct: from tissue; host or cells: smooth muscle tissue of porcine aorta (membrane fraction)
T1 sequence (Q29010 21-427): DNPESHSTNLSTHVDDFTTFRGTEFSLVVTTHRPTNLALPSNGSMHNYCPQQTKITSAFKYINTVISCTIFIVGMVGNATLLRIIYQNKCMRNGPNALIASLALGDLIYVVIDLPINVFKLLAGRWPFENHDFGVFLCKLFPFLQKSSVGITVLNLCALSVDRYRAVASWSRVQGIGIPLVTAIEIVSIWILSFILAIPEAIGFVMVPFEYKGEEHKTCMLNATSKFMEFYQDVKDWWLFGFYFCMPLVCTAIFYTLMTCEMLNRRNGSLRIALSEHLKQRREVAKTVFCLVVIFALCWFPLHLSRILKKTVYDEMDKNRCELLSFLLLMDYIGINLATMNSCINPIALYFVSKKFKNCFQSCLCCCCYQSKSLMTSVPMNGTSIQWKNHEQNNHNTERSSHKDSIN
Method in brief: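 Porcine aortic smooth muscle membranes incubated with ^125I-endothelin-1 (12000-18000 cpm) and test compound at 1.1 μM final in Tris/HCl pH 7.4 with protease inhibitors and 0.1% BSA, 4 h at 25 °C. Filter-bound radioactivity counted, nonspecific binding defined with 0.2 μM endothelin-1; % binding inhibition in triplicate.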

[2] = test system: isolated porcine coronary artery (endothelin-1-induced contraction); assay: Activities against endothelin-induced contraction of isolated porcine coronary arteries; parameters: species or system pig; conditions: for shift of the concentration-response curve of endothelin-1: added 20 minutes prior to endothelin-1
Experimental: Activities against endothelin-induced contraction of isolated procine coronary arteries
The coronary artery of pig was extracted, and a spiral preparation having a width of 1 mm and a length of 10 mm was prepared therefrom. The preparation having the endothelial cells denuded, was hanged in a 5 ml organ bath filled wit a Krebs.Henseleit solution saturated with a gas mixture of 95% O2 and 5% CO2, and the change in the tension was isometrically measured and recorded.
(§1) Endothelin-1 was added into the organ bath in a cumulatively increasing manner, whereby the influence of the compound of the present invention to the concentration-response curve for endothelin-1 was examined. The compound of the present invention was added into the organ bath 20 minutes prior to the addition of endothelin-1.

[3] = test system: isolated guinea pig trachea (endothelin-1-induced contraction); assay: Activities against endothelin-induced contraction of isolated guinea pig trachea; conditions: for shift of the concentration-response curve for endothelin-1: added 20 minutes prior to endothelin-1
Experimental: Activities aqainst endothelin-induced contraction of isolated guinea pig trachea
The trachea of a guinea pig was extracted, and the trachea was cut into rings to afford the preparation. A preparation having the endothelial cells denuded, was hanged in a 5 ml organ bath filled with a Krebs.Henseleit solution saturated with a gas mixture of 95% O2 and 5% CO2, and the change in the tension was isometrically measured and recorded.
Endothelin-1 was added into the organ bath in a cumulatively increasing manner, and the influence of the compound of the present invention to the concentration-response curve for endothelin was examined. The compound of the present invention was added into the organ bath 20 minutes prior to the addition of endothelin-1.

[4] = test system: mice (endotoxin-induced mortality); assay: Endotoxin shock: endotoxin-induced mortality in mice; assay type: in vivo, mouse; conditions: for Survived number/number of the tested animals / survival rate (%): compound 100 × 2 mg/kg i.p.
Experimental: (§2) Activities against an endotoxin shock
(§3) To a male ddy mouse, endotoxin (Lipopolysaccharide derived from E. coli 055:B5) dissolved in a 0.15% sodium hydrogencarbonate aqueous solution, was intravenously administered via the tail vein at a dose of 30 mg/kg, whereupon a distinct body temperature lowering effect was observed.
The intravenous administration of endotoxin via the tail vein at a high dose (100 mg/kg) killed mice in all cases (10/10) within 48 hours.

[5] = test system: male ddy mouse (endotoxin-induced body temperature lowering); assay: Endotoxin shock: endotoxin-induced body temperature lowering in mice; assay type: in vivo; conditions: endotoxin 30 mg/kg i.v., compound 100 mg/kg i.p. 30 minutes prior to and 30 minutes subsequent to endotoxin
Experimental: as §2, §3

[6] = test system: isolated rat heart (endothelin-1-induced increase of perfusion pressure); assay: Effects on the increased perfusion pressure induced by endothelin in isolated rat heart
Experimental: Effects on the increased perfusion pressure induced by endothelin in isolated rat heart
The heart of a male Sprague Dohrie (SD) rat was extracted, and the perfusion pressure was measured and recorded by a Langendorff's method. The perfusion pressure was evaluated on the basis that the state where a Krebs.Henseleit solution saturated with a gas mixture of 95% O2 and 5% CO2 was infused at a rate of 10 ml/min, was taken as a standard.
Endothelin-1 was cumulatively added to the perfusate, whereby the influence of the compound to the concentration-response curve for endothelin-1 was examined. The compound of the present invention which was dissolved in the perfusate had been infused from 20 minutes prior to the addition of endothelin-1 till just after finishing measurement of the concentration-response curve for endothelin-1.

[7] = test system: isolated porcine basilar artery (endothelin-1-induced contraction); assay: Activities against endothelin-induced contraction of isolated porcine basilar artery; parameters: species or system pig; conditions: compound 2 μM
Experimental: Activities aqainst endothelin-induced contraction of isolated porcine basilar artery
The arteria basilaris of pig was extracted, and then a ring preparation with a width of 4 mm was prepared. After denuded the endothelial cells, the preparation was hanged in a 5 ml organ bath filled with a Krebs.Henseleit solution saturated with a gas mixture of 95% O2 and 5% CO2, and the change in the tension was isometrically measured and recorded.
as §1

[8] = 24 hr after endotoxin (100 mg/kg i.v.)
[9] = 48 hr after endotoxin (100 mg/kg i.v.)
[10] = 96 hr after endotoxin (100 mg/kg i.v.)

## CC(C)C[C@@H]1NC(=O)[C@@H](C(C)C)NC(=O)[C@H](C)NC(=O)[C@@H](CC(=O)O)NC(=O)[C@@H](Cc2c[nH]c3ccccc23)NC1=O [Example 12, cyclo(-DTrp-DAsp-Ala-DVal-Leu-)] (cyclo(A[dV]L[dW][dD]))
[1]
  inhibition at 1.1 µM: 75%
[2]; compound 3 μM
  effect on the maximum response to endothelin-1: did not affect the maximum response
  shift of the concentration-response curve of endothelin-1: remarkably shifted the concentration-response curves of endothelin-1 to the right

## CC(C)C[C@@H]1NC(=O)[C@@H](C(C)C)NC(=O)[C@@H]2CCCN2C(=O)[C@@H](CC(=O)O)NC(=O)[C@@H](Cc2c[nH]c3ccccc23)NC1=O [Example 15, cyclo(-DTrp-DAsp-Pro-DVal-Leu-)] (cyclo(L[dW][dD]P[dV]))
[3]; compound 2 μM
  effect on the maximum response to endothelin-1: did not affect the maximum response
  shift of the concentration-response curve for endothelin-1: remarkably shifted the concentration-response curves for endothelin-1 to the right
[4]; [8]
  Survived number/number of the tested animals: 10/10
  survival rate (%): 100%
[4]; [9]
  Survived number/number of the tested animals: 6/10
  survival rate (%): 60%
[4]; [10]
  Survived number/number of the tested animals: five cases out of ten cases survived and 5/10
  survival rate (%): 50%
[4]; endotoxin 100 mg/kg i.v., compound 100 mg/kg i.p. 30 minutes before and after endotoxin
  effect on endotoxin-induced mortality: a distinct reduction in the mortality was observed
[1]
  inhibition at 1.1 µM: 85%
[2]; compound 2 μM
  effect on the maximum response to endothelin-1: did not affect the maximum response
  shift of the concentration-response curve of endothelin-1: remarkably shifted the concentration-response curves of endothelin-1 to the right
[5]
  effect on the endotoxin-induced body temperature lowering: showed remarkable antagonistic activities against the endotoxin-induced body temperature lowering effect

## CC(C)C[C@@H]1NC(=O)[C@@H](C(C)C)NC(=O)[C@H](C)N(C)C(=O)[C@@H](CC(=O)O)NC(=O)[C@@H](CC2C(=O)Nc3ccccc32)NC1=O (stereo partly drawn) [Example 89, cyclo(-DTrp(O)-DAsp-MeAla-DVal-Leu-)] (cyclo(L[X4][dD][NMeA][dV]))
[1]
  inhibition at 1.1 µM: 67%

## COC(=O)Cn1cc(C[C@H]2NC(=O)[C@H](CC(C)C)NC(=O)[C@@H](C(C)C)NC(=O)[C@@H]3CCCN3C(=O)[C@@H](CC(=O)O)NC2=O)c2ccccc21 [Example 90, cyclo(-DTrp(CH2 COOCH3)-DAsp-Pro-DVal-Leu-)] (cyclo(L[X6][dD]P[dV]))
[1]
  inhibition at 1.1 µM: 35%

## CC(C)C[C@@H]1NC(=O)[C@@H](C(C)C)NC(=O)[C@@H]2CCCN2C(=O)[C@@H](CC(=O)O)NC(=O)[C@@H](Cc2cn(CC(N)=O)c3ccccc23)NC1=O [Example 91, cyclo(-DTrp(CH2 CONH2)-DAsp-Pro-DVal-Leu-)] (cyclo(L[X3][dD]P[dV]))
[1]
  inhibition at 1.1 µM: 23%

## CNC(=O)Cn1cc(C[C@H]2NC(=O)[C@H](CC(C)C)NC(=O)[C@@H](C(C)C)NC(=O)[C@@H]3CCCN3C(=O)[C@@H](CC(=O)O)NC2=O)c2ccccc21 [Example 92, cyclo(-DTrp(CH2 CONHCH3)-DAsp-Pro-DVal-Leu-)] (cyclo(L[X2][dD]P[dV]))
[1]
  inhibition at 1.1 µM: 28%

## cyclo(-DTro-DCys(O3 Na)-Pro-DVal-Leu-) [Example 3]
[3]; compound 6 μM
  effect on the maximum response to endothelin-1: did not affect the maximum response
  shift of the concentration-response curve for endothelin-1: remarkably shifted the concentration-response curves for endothelin-1 to the right
[6]; compound 1 μM
  effect on the maximum response to endothelin-1 (perfusion pressure): did not affect the maximum response
[6]; compound 1 μM in the perfusate from 20 minutes prior to endothelin-1, Langendorff
  shift of the concentration-response curve for endothelin-1 (perfusion pressure): moved the concentration-response curve for endothelin-1 to the right
[1]
  125I-endothelin-1 binding inhibition, Inhibition (%): 85%
[2]; compound 2 μM
  effect on the maximum response to endothelin-1: did not affect the maximum response
  shift of the concentration-response curve of endothelin-1: remarkably shifted the concentration-response curves of endothelin-1 to the right
[7]
  effect on the maximum response to endothelin-1: did not affect the maximum response
[7]; added 20 minutes prior to endothelin-1
  shift of the concentration-response curve for endothelin-1: remarkably shifted the concentration-response curve for endothelin-1 to the right

## cyclo(-DTrp(CHO)-DAsp-Met(O)-DVal-Leu-) [Example 77]
[1]
  125I-endothelin-1 binding inhibition, Inhibition (%): 78%

## cyclo(-DTrp(CHO)-DAsp-Pro-DaIle-Leu-) [Example 53]
[1]
  125I-endothelin-1 binding inhibition, Inhibition (%): 89%

## cyclo(-DTrp(CHO)-DCys(O3 Na)-Pro-DThg-Leu-) [Example 75]
[1]
  125I-endothelin-1 binding inhibition, Inhibition (%): 87%

## cyclo(-DTrp(CHO)-DGlu-Ala-DaIle-Leu-) [Example 52]
[1]
  125I-endothelin-1 binding inhibition, Inhibition (%): 64%

## cyclo(-DTrp-DAsp-Cys(O3 Na)-DVal-Leu-) [Example 24]
[1]
  125I-endothelin-1 binding inhibition, Inhibition (%): 78%

## cyclo(-DTrp-DAsp-Pro-DtertLeu-Leu-) [Example 71]
[1]
  125I-endothelin-1 binding inhibition, Inhibition (%): 80%

## cyclo(-DTrp-DCys(O3 Na)-Glu-DVal-Leu-) [Example 49]
[1]
  125I-endothelin-1 binding inhibition, Inhibition (%): 67%

## cyclo(-DTrp-DCys(O3 Na)-Pro-DThg-Leu-) [Example 76]
[1]
  125I-endothelin-1 binding inhibition, Inhibition (%): 84%

## cyclo(-DTrp-DCys(O3 Na)-Pro-DaIle-Leu-) [Example 43]
[1]
  125I-endothelin-1 binding inhibition, Inhibition (%): 85%

## cyclo([dW][dD]P[d(aIle)]L) [Example 32]
[1]
  125I-endothelin-1 binding inhibition, Inhibition (%): 87%

## cyclo([dW][dD]P[dV]L) [Example 30]
[1]
  125I-endothelin-1 binding inhibition, Inhibition (%): 72%

## cyclo([dW][dE]A[d(aIle)]L) [Example 8]
[1]
  125I-endothelin-1 binding inhibition, Inhibition (%): 37%
